Drawing on patent US7601716B2, “Pyridopyrazines and derivatives thereof as ALK and c-Met inhibitors” (Cephalon, Inc., priority 2006, dated 2009), this text covers IC50 for 26 compounds.

baculovirus-expressed ALK, sequence (Q9UM73 19-1620): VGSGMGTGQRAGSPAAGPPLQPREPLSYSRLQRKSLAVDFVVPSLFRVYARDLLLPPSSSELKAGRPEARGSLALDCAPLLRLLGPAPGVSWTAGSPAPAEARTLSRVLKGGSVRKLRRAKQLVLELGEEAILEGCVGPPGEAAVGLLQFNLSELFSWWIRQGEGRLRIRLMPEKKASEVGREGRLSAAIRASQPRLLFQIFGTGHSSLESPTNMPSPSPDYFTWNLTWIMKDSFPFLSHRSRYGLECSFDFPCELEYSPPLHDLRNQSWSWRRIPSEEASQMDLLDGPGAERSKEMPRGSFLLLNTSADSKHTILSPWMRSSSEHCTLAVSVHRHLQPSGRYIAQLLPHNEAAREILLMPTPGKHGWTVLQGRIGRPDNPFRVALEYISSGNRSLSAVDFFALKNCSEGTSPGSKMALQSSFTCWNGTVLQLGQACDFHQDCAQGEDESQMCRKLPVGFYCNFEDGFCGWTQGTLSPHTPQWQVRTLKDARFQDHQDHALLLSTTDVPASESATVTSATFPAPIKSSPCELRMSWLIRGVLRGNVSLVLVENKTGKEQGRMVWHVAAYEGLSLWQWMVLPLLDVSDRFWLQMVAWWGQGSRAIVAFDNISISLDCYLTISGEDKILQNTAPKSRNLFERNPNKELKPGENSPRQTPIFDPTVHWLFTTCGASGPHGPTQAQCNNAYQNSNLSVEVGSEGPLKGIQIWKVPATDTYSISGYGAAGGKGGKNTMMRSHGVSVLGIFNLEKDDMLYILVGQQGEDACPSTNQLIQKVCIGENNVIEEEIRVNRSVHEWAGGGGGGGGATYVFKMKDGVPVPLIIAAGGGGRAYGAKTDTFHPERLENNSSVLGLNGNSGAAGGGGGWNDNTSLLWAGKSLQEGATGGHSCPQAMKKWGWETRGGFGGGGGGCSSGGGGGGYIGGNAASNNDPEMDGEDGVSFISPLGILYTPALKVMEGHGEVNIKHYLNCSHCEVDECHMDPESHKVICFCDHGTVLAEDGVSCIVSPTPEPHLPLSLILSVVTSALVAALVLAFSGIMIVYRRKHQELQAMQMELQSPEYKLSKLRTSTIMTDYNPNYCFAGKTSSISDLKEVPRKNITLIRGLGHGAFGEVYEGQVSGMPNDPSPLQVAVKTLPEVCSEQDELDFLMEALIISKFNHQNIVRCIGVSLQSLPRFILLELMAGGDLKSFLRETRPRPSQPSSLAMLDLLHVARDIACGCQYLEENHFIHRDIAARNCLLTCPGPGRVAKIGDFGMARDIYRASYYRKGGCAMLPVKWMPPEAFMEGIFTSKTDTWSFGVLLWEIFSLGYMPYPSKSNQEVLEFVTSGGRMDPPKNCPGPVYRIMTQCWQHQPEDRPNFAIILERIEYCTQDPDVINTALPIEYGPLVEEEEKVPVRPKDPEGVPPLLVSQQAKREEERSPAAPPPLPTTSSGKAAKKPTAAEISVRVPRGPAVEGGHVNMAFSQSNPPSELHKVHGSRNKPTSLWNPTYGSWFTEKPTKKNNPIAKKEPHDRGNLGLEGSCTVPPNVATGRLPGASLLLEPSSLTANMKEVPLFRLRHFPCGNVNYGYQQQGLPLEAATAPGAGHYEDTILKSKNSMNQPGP

The target of the experiment is baculovirus-expressed ALK (Homo sapiens, UniProt Q9UM73). Nature of the experiment: ALK Kinase Assay (ELISA/TRF, PLC-γ substrate). Note: 1 µM ATP (Km level). It is filed as biochemical. As to conditions: read-out: ALK Kinase Inhibition (IC50). The procedure, abridged:
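Substrate phosphorylation by 30 ng/ml ALK (37° C, 15 min) on PLC-γ-coated wells is quantified via time-resolved europium fluorescence from an anti-phosphotyrosine antibody. Percent inhibition against log10 compound concentration yields IC50 by nonlinear regression.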
(In an ELISA, binding on a coated surface is turned into a signal by an enzyme label.)
For the compound `O=C(c1cccc(-c2cnc3c(c2)N(Cc2cc(Cl)ccc2C(F)(F)F)CCN3)c1)N1CCC[C@H]1CN1CCCC1` [Example 365, (3-{1-[5-Chloro-2-(trifluoromethyl)benzyl]-1,2,3,4-tetrahydropyrido[2,3-b]pyrazin-7-yl}phenyl)-((S)-2-pyrrolidin-1-ylmethylpyrrolidin-1-yl)methanone], the IC50 was less than 100 nM.

Take `O=C(c1cccc(-c2cnc3c(c2)N(Cc2cc(Cl)ccc2C(F)(F)F)CCN3)c1)N1CCCC1c1cccnc1` (centres unmarked) [Example 366, (3-{1-[5-Chloro-2-(trifluoromethyl)benzyl]-1,2,3,4-tetrahydropyrido[2,3-b]pyrazin-7-yl}phenyl)-(2-pyridin-3-ylpyrrolidin-1-yl)methanone]: the IC50 lay in the range of 100 to 1000 nM.

For the compound `COc1ccccc1CN(C)C(=O)c1cccc(-c2cnc3c(c2)N(Cc2cc(Cl)ccc2C(F)(F)F)CCN3)c1` [Example 367, 3-{1-[5-Chloro-2-(trifluoromethyl)benzyl]-1,2,3,4-tetrahydropyrido[2,3-b]pyrazin-7-yl}-N-(2-methoxybenzyl)-N-methylbenzamide], the IC50 was 100 to 1000 nM.

As for `O=C(c1ccc(-c2cnc3c(c2)N(Cc2cc(Cl)ccc2C(F)(F)F)CCN3)cc1)N1CCN(c2ccccc2)CC1` [Example 368, (4-{1-[5-Chloro-2-(trifluoromethyl)benzyl]-1,2,3,4-tetrahydropyrido[2,3-b]pyrazin-7-yl}phenyl)-(4-phenylpiperazin-1-yl)methanone], the IC50 is 100 to 1000 nM.

In the case of `O=C(c1ccc(-c2cnc3c(c2)N(Cc2cc(Cl)ccc2C(F)(F)F)CCN3)cc1)N1CCN(c2ncccn2)CC1` [Example 369, (4-{1-[5-Chloro-2-(trifluoromethyl)benzyl]-1,2,3,4-tetrahydropyrido[2,3-b]pyrazin-7-yl}phenyl)-(4-pyrimidin-2-ylpiperazin-1-yl)methanone], the IC50 lay within 100 to 1000 nM.

`O=C(c1ccc(-c2cnc3c(c2)N(Cc2cc(Cl)ccc2C(F)(F)F)CCN3)cc1)N1CCN(c2ccc(Cl)cc2)CC1` [Example 370, [4-(4-Chlorophenyl)piperazin-1-yl]-(4-{1-[5-chloro-2-(trifluoromethyl)benzyl]-1,2,3,4-tetrahydropyrido[2,3-b]pyrazin-7-yl}phenyl)methanone]: the IC50 was in the range of 100 to 1000 nM.

For the compound `O=C(c1ccc(-c2cnc3c(c2)N(Cc2cc(Cl)ccc2C(F)(F)F)CCN3)cc1)N1CCC(O)(c2ccc(Cl)cc2)CC1` [Example 371, [4-(4-Chlorophenyl)-4-hydroxypiperidin-1-yl]-(4-{1-[5-chloro-2-(trifluoromethyl)benzyl]-1,2,3,4-tetrahydropyrido[2,3-b]pyrazin-7-yl}phenyl)methanone], the IC50 was 100 to 1000 nM.

As for `O=C(c1ccc(-c2cnc3c(c2)N(Cc2cc(Cl)ccc2C(F)(F)F)CCN3)cc1)N1CCC(n2c(=O)[nH]c3ccccc32)CC1` [Example 372, 1-[1-(4-{1-[5-Chloro-2-(trifluoromethyl)benzyl]-1,2,3,4-tetrahydropyrido[2,3-b]pyrazin-7-yl}benzoyl)piperidin-4-yl]-1,3-dihydrobenzoimidazol-2-one], the IC50 fell in the range of 100 to 1000 nM.

Turning to `COc1ccccc1N1CCN(C(=O)c2ccc(-c3cnc4c(c3)N(Cc3cc(Cl)ccc3C(F)(F)F)CCN4)cc2)CC1` [Example 373, (4-{1-[5-Chloro-2-(trifluoromethyl)benzyl]-1,2,3,4-tetrahydropyrido[2,3-b]pyrazin-7-yl}phenyl)-[4-(2-methoxyphenyl)piperazin-1-yl]methanone], the IC50 lay in the range of 100 to 1000 nM.

For `O=C(c1ccc(-c2cnc3c(c2)N(Cc2cc(Cl)ccc2C(F)(F)F)CCN3)cc1)N1CCN(c2cccc(C(F)(F)F)c2)CC1` [Example 374, (4-{1-[5-Chloro-2-(trifluoromethyl)benzyl]-1,2,3,4-tetrahydropyrido[2,3-b]pyrazin-7-yl}phenyl)-{4-[3-(trifluoromethyl)phenyl]piperazin-1-yl}methanone], the IC50 lay within 100 to 1000 nM.

On to `O=C(c1ccc(-c2cnc3c(c2)N(Cc2cc(Cl)ccc2C(F)(F)F)CCN3)cc1)N1CCC(c2ccccc2)CC1` [Example 375, (4-{1-[5-Chloro-2-(trifluoromethyl)benzyl]-1,2,3,4-tetrahydropyrido[2,3-b]pyrazin-7-yl}phenyl)-(4-phenylpiperidin-1-yl)methanone], for which the IC50 fell in the range of 100 to 1000 nM.

For the compound `O=C(c1ccc(-c2cnc3c(c2)N(Cc2cc(Cl)ccc2C(F)(F)F)CCN3)cc1)N1CCC(c2c[nH]c3ccccc23)CC1` [Example 376, (4-{1-[5-Chloro-2-(trifluoromethyl)benzyl]-1,2,3,4-tetrahydropyrido[2,3-b]pyrazin-7-yl}phenyl)-[4-(1H-indol-3-yl)piperidin-1-yl]methanone], the IC50 was 100 to 1000 nM.

For the compound `O=C(c1ccc(-c2cnc3c(c2)N(Cc2cc(Cl)ccc2C(F)(F)F)CCN3)cc1)N1CCN(C(c2ccccc2)c2ccccc2)CC1` [Example 377, (4-Benzhydrylpiperazin-1-yl)-(4-{1-[5-chloro-2-(trifluoromethyl)benzyl]-1,2,3,4-tetrahydropyrido[2,3-b]pyrazin-7-yl}phenyl)methanone], the IC50 lay within 1000 to 10000 nM.

As to `O=C(c1ccc(-c2cnc3c(c2)N(Cc2cc(Cl)ccc2C(F)(F)F)CCN3)cc1)N1CCC(Cc2ccccc2)CC1` [Example 378, (4-Benzylpiperidin-1-yl)-(4-{1-[5-chloro-2-(trifluoromethyl)benzyl]-1,2,3,4-tetrahydropyrido[2,3-b]pyrazin-7-yl}phenyl)methanone], the IC50 was 1000 to 10000 nM.

As for `O=C(c1ccc(-c2cnc3c(c2)N(Cc2cc(Cl)ccc2C(F)(F)F)CCN3)cc1)N1CCN(c2ccc(Cl)c(Cl)c2)CC1` [Example 379, (4-{1-[5-Chloro-2-(trifluoromethyl)benzyl]-1,2,3,4-tetrahydropyrido[2,3-b]pyrazin-7-yl}phenyl)-[4-(3,4-dichlorophenyl)piperazin-1-yl]methanone], the IC50 is 100 to 1000 nM.

For the compound `O=C(c1ccc(-c2cnc3c(c2)N(Cc2cc(Cl)ccc2C(F)(F)F)CCN3)cc1)N1CCC2(CC1)C(=O)NCN2c1ccccc1` [Example 380, 8-(4-{1-[5-Chloro-2-(trifluoromethyl)benzyl]-1,2,3,4-tetrahydropyrido[2,3-b]pyrazin-7-yl}benzoyl)-1-phenyl-1,3,8-triaza-spiro[4.5]decan-4-one], the IC50 was 100 to 1000 nM.

For the compound `O=C(c1ccc(-c2cnc3c(c2)N(Cc2cc(Cl)ccc2C(F)(F)F)CCN3)cc1)N1CCN(c2ccccc2C(F)(F)F)CC1` [Example 381, (4-{1-[5-Chloro-2-(trifluoromethyl)benzyl]-1,2,3,4-tetrahydropyrido[2,3-b]pyrazin-7-yl}phenyl)-{4-[2-(trifluoromethyl)phenyl]piperazin-1-yl}methanone], the IC50 was 100 to 1000 nM.

Regarding `O=C(c1ccc(-c2cnc3c(c2)N(Cc2cc(Cl)ccc2C(F)(F)F)CCN3)cc1)N1CCN(c2ncnc3ccsc23)CC1` [Example 382, (4-{1-[5-Chloro-2-(trifluoromethyl)benzyl]-1,2,3,4-tetrahydropyrido[2,3-b]pyrazin-7-yl}phenyl)-(4-thieno[3,2-d]pyrimidin-4-yl-piperazin-1-yl)methanone], the IC50 fell in the range of 100 to 1000 nM.

As for `O=C(c1ccc(-c2cnc3c(c2)N(Cc2cc(Cl)ccc2C(F)(F)F)CCN3)cc1)N1CCN(Cc2ccc(Cl)cc2)CC1` [Example 383, [4-(4-Chlorobenzyl)piperazin-1-yl]-(4-{1-[5-chloro-2-(trifluoromethyl)benzyl]-1,2,3,4-tetrahydropyrido[2,3-b]pyrazin-7-yl}phenyl)methanone], the IC50 was 100 to 1000 nM.

Take `COc1ccc(CN2CCN(C(=O)c3ccc(-c4cnc5c(c4)N(Cc4cc(Cl)ccc4C(F)(F)F)CCN5)cc3)CC2)cc1` [Example 384, (4-{1-[5-Chloro-2-(trifluoromethyl)benzyl]-1,2,3,4-tetrahydropyrido[2,3-b]pyrazin-7-yl}phenyl)-[4-(4-methoxybenzyl)piperazin-1-yl]methanone]: the IC50 lay within 100 to 1000 nM.

On to `O=C(c1ccccc1)N1CCN(C(=O)c2ccc(-c3cnc4c(c3)N(Cc3cc(Cl)ccc3C(F)(F)F)CCN4)cc2)CC1` [Example 385, (4-Benzoylpiperazin-1-yl)-(4-{1-[5-chloro-2-(trifluoromethyl)benzyl]-1,2,3,4-tetrahydropyrido[2,3-b]pyrazin-7-yl}phenyl)methanone], for which the half-maximal inhibitory concentration (IC50) was less than 100 nM.

Consider `O=C(c1ccc(-c2cnc3c(c2)N(Cc2cc(Cl)ccc2C(F)(F)F)CCN3)cc1)N1CCN(c2nccc3occc23)CC1` [Example 386, (4-{1-[5-Chloro-2-(trifluoromethyl)benzyl]-1,2,3,4-tetrahydropyrido[2,3-b]pyrazin-7-yl}phenyl)-(4-furo[3,2-c]pyridin-4-ylpiperazin-1-yl)methanone], for which the IC50 lay within 100 to 1000 nM.

With `O=C(c1ccc(-c2cnc3c(c2)N(Cc2cc(Cl)ccc2C(F)(F)F)CCN3)cc1)N1CCC(c2noc3cc(F)ccc23)CC1` [Example 387, (4-{1-[5-Chloro-2-(trifluoromethyl)benzyl]-1,2,3,4-tetrahydropyrido[2,3-b]pyrazin-7-yl}phenyl)-[4-(6-fluorobenzo[d]isoxazol-3-yl)-piperidin-1-yl]methanone], the IC50 fell in the range of 100 to 1000 nM.

`O=C(NCCc1ccccn1)c1ccc(-c2cnc3c(c2)N(Cc2cc(Cl)ccc2C(F)(F)F)CCN3)cc1` [Example 388, 4-{1-[5-Chloro-2-(trifluoromethyl)benzyl]-1,2,3,4-tetrahydropyrido[2,3-b]pyrazin-7-yl}-N-(2-pyridin-2-yl-ethyl)benzamide]: the IC50 lay within 100 to 1000 nM.

As to `CCOC(=O)N1CCC(NC(=O)c2ccc(-c3cnc4c(c3)N(Cc3cc(Cl)ccc3C(F)(F)F)CCN4)cc2)CC1` [Example 389, 4-(4-{1-[5-Chloro-2-(trifluoromethyl)benzyl]-1,2,3,4-tetrahydropyrido[2,3-b]pyrazin-7-yl}benzoylamino)piperidine-1-carboxylic acid ethyl ester], the concentration for half-maximal inhibition (IC50) is 100 to 1000 nM.

Consider `O=C(NC1CCN(Cc2ccccc2)CC1)c1ccc(-c2cnc3c(c2)N(Cc2cc(Cl)ccc2C(F)(F)F)CCN3)cc1` [Example 390, N-(1-Benzylpiperidin-4-yl)-4-{1-[5-chloro-2-(trifluoromethyl)benzyl]-1,2,3,4-tetrahydropyrido[2,3-b]pyrazin-7-yl}benzamide], for which the concentration for half-maximal inhibition (IC50) is 100 to 1000 nM.

What is called IC50 is the concentration at which inhibition is half-maximal.
